Reference: US6649646B2, “Insecticidal and miticidal compositions” (priority 1996, dated 2003)

The molecules below were run on susceptible strain of spider mite (assay: LC50 against a susceptible strain of spider mite). Settings: not given.
Format: in vivo
With CCOCn1c(-c2ccc(Cl)cc2)c(C#N)c(Br)c1C(F)(F)F [Chlorfenapyr, 4-Bromo-2-(4-chlorophenyl)-1-(ethoxymethyl)-5-(trifluoromethyl)pyrrole-3-carbonitrile] the LC50 was “about 5 ppm”.

What follows are molecules tested on Kanzawa spider mite (Tetranychus kanzawai kishida) which had acquired a strong resistance to chlorfenapyr (assay: Miticidal effect against female imagines of chlorfenapyr-resistant Kanzawa spider mite, leaf disk spray test). Settings: LC50 resistant strain relative to susceptible strain.
Format: in vivo
Description: For a T value equal to 100, an additive action is indicated.
In the case of CCOCn1c(-c2ccc(Cl)cc2)c(C#N)c(Br)c1C(F)(F)F [Chlorfenapyr, 4-Bromo-2-(4-chlorophenyl)-1-(ethoxymethyl)-5-(trifluoromethyl)pyrrole-3-carbonitrile], the “resistance to chlorfenapyr of the resistant strain versus susceptible strain” value is reported as roughly 300 fold.

Same assay, conditions: in vivo
In the case of CCCSP(=S)(OCC)Oc1ccc(Cl)cc1Cl (stereo not drawn) [Prothiophos, O-2,4-Dichlorophenyl-O-ethyl-S-propylphosphorodithioate], the LC50 is reported as 260 ppm.

Same assay, conditions: single test compound; female imago, chlorfenapyr-resistant strain; mortality two days after spray treatment, 25±1° C.; probit analysis
CCOC(=O)CC(SP(=S)(OC)OC)C(=O)OCC (stereo not drawn) [Malathon, Dimethyldicarbethoxyethyldithiophosphate] gave an LC50 of 3400 ppm. For CCOP(=S)(OCC)Oc1ccc(=O)n(-c2ccccc2)n1 [Pyridaphenthion, O,O-Diethyl-O-(3-oxo-2-phenyl-2H-pyridazin-6-yl) phosphorothioate], the LC50 was 1900 ppm. For COP(=S)(OC)Oc1ccc(C#N)cc1 [CYAP, O,O-Dimethyl-O-p-cyanophenylthiophosphate], the LC50 was 3200 ppm. Molecule CCOCn1c(-c2ccc(Cl)cc2)c(C#N)c(Br)c1C(F)(F)F [Chlorfenapyr, 4-Bromo-2-(4-chlorophenyl)-1-(ethoxymethyl)-5-(trifluoromethyl)pyrrole-3-carbonitrile] has an LC50 of 1500 ppm. CC(C)OP(=O)(OC(C)C)SCc1ccccc1 [IBP, O,O-Diisopropyl-S-benzylthiophosphate] was tested, and the LC50 was 1300 ppm. In the case of CCOP(=S)(OCC)SCSP(=S)(OCC)OCC [Ethion, O,O,O′,O′-Tetraethyl-S,S′-methylenebisphosphorodithioate], the LC50 is reported as 3100 ppm. Work on CCCSP(=S)(OCC)Oc1ccc(SC)cc1 (stereo not drawn) [Sulprofos, O-Ethyl-O-4-methylthiophenyl-S-propyl-phosphorodithioate] yielded an LC50 of 320 ppm. In the case of CCOP(=S)(OCC)Oc1nc(Cl)c(Cl)cc1Cl [Chlorpyrifos, O,O-Diethyl-O-3,5,6-trichloro-2-pyridylphosphorothioate], the LC50 is reported as 3200 ppm. With CCOP(=S)(Oc1ccc([N+](=O)[O-])cc1)c1ccccc1 (stereo not drawn) [EPN, Ethyl p-nitrophenylthionobenzenephosphonate] the LC50 was 3100 ppm. In the case of COP(=S)(OC)Oc1ccc([N+](=O)[O-])c(C)c1 [MEP, O,O-Dimethyl-O-(3-methyl-4-nitrophenyl)thiophosphate], the LC50 is reported as 3200 ppm. For COP(=S)(OC)Oc1nc(Cl)c(Cl)cc1Cl [Chlorpyrifosmethyl, O,O-Dimethyl-O-3,5,6-trichloro-2-pyridylphosphorothioate], the LC50 was 790 ppm. CCOP(=S)(OCC)SCn1c(=O)oc2cc(Cl)ccc21 [Phosalone, 3-Diethoxyphosphorylthiomethyl-6-chlorobenzoxazolone] was tested, and the LC50 was 350 ppm. Work on CCOP(=S)(OCC)Oc1cc(C)nc(C(C)C)n1 [Diazinon, (2-isopropyl-4-methylpyrimidyl-6)-diethylthiophosphate] yielded an LC50 of 3200 ppm. CCOC(=O)C(SP(=S)(OC)OC)c1ccccc1 (stereo not drawn) [PAP, Ethyl dimethyldithiophosphorylphenylacetate] gave an LC50 of 2000 ppm. COP(=S)(OC)Oc1ccc(SC)c(C)c1 [MPP, O,O-Dimethyl-O-[3-methyl-4-(methylthio)phenyl]-thiophosphate] gave an LC50 of 1100 ppm.
